The test system of assay [1] is M. suipneumoniae ATCC 25095. As to the kind of experiment: MIC against Mycoplasma in vitro (agar). The conditions noted are these: Friis broth solidified with 0.9% agarose, 6 days at 37°C. It is filed as cell-based.
Assay [2] has as its system M. gallisepticum S6. As to the kind of experiment: MIC against Mycoplasma in vitro (agar). The conditions noted are these: Friis broth solidified with 0.9% agarose, 6 days at 37°C. It is filed as cell-based.
Assay [3] has as its system Staph. aureus B4 (pen. resistant). As to the kind of experiment: MIC against Veterinary Bacteria in vitro (agar dilution). (In general: Agar dilution tests growth on a series of plates holding different concentrations.)
Method: (§1) The activity of the compounds of the Examples against various veterinarily important bacteria, was assayed in vitro using two-fold serial dilutions in Diagnostic Sensitivity Test Agar inoculated with 10^4 organisms.
Assay [4] has as its system Strep. suis (group D) SPS11. The description is as above.
Method: as §1
The subject of assay [5] is M. suipneumoniae MS 16. As to the kind of experiment: MIC against Mycoplasma in vitro (agar). It is filed as cell-based. The conditions noted are these: Friis broth solidified with 0.9% agarose, 6 days at 37°C.
Assay [6] relates to Strep. pyogenes 64/848-C. As to the kind of experiment: MIC against Human Bacteria in vitro (agar dilution). The conditions noted are these: Streptococcus pyogenes, agar with 5% chocolated horse blood, 18 hours at 37°C. The format is cell-based.
Assay [7] has as its system Strep. pyogenes R80/421-A. The assay is described as above. The format is cell-based. The conditions noted are these: Streptococcus pyogenes, agar with 5% chocolated horse blood, 18 hours at 37°C.
The test system of assay [8] is E. coli NCTC 10418. The assay is described as follows: MIC against Veterinary Bacteria in vitro (agar dilution).
Method: as §1
The subject of assay [9] is P. mirabilis 889. The assay is described as follows: MIC against Human Bacteria in vitro (agar dilution). The format is cell-based. The conditions noted are these: agar with 5% chocolated horse blood, 18 hours at 37°C.
Assay [10] deals with Erysipelothrix rhusiopathiae NCTC 8163. The assay is described as follows: MIC against Veterinary Bacteria in vitro (agar dilution).
Method: as §1
The test system of assay [11] is M. suipneumoniae NB12. As to the kind of experiment: MIC against Mycoplasma in vitro (agar). The conditions noted are these: Friis broth solidified with 0.9% agarose, 6 days at 37°C. The format is cell-based.
In assay [12] the test system is Ps. aeruginosa NCTC 10662. The assay is described as follows: MIC against Human Bacteria in vitro (agar dilution). The format is cell-based. The conditions noted are these: 18 hours at 37°C.
Assay [13] concerns Staph. aureus Oxford. The assay is described as above. It is filed as cell-based. The conditions noted are these: agar with 5% chocolated horse blood, 18 hours at 37°C.
For assay [14], the system named is M. dispar NCTC 10125. The assay is described as follows: MIC against Mycoplasma in vitro (agar). The conditions noted are these: Friis broth solidified with 0.9% agarose, 6 days at 37°C. It is filed as cell-based.
For assay [15], the system named is Haemophilus influenzae Wy21. As to the kind of experiment: MIC against Human Bacteria in vitro (agar dilution). It is filed as cell-based. The conditions noted are these: agar with 5% chocolated horse blood, 18 hours at 37°C.
For assay [16], the system named is M. pneumoniae ATCC 15492. The assay is described as follows: MIC against Mycoplasma in vitro (agar). The conditions noted are these: Friis broth solidified with 0.9% agarose, 6 days at 37°C. The format is cell-based.
Assay [17] has as its system Corynebacterium pyogenes CY1. As to the kind of experiment: MIC against Veterinary Bacteria in vitro (agar dilution). The conditions noted are these: Diagnostic Sensitivity Test Agar, 18 hours at 37°C.
Method: as §1

Values after ≈ are worked out from the molar mass of the structure shown. Read-outs that look alike come from different tables or passages of the source. Where only a bound is given, the exact number is not on record here.

With `CC(=CC(=O)OCCCCC=CCCC(=O)O)CC1OCC(CC2OC2C(C)C(C)O)C(O)C1O` (centres unmarked) [Example 1, pseudomonic acid D], the MIC in assay [1] (Mesomycoplasma hyopneumoniae, ATCC25095, 144 h, read-out: MIC) is 1 µg/mL (≈ 2.01 µM); in assay [2] (Mycoplasmoides gallisepticum, 144 h, read-out: MIC) it was above 10 µg/mL; in assay [3] (Staphylococcus aureus, 18 h) it was 0.312 µg/mL (≈ 0.626 µM); in assay [4] (Streptococcus suis, 18 h), 1.25 µg/mL (≈ 2.51 µM); in assay [5] (Mesomycoplasma hyopneumoniae, MS16, 144 h, read-out: MIC) it was 2.5 µg/mL (≈ 5.01 µM); in assay [6] it was 0.25 µg/mL (≈ 0.501 µM). In addition, the MIC in assay [7] was 0.5 µg/mL (≈ 1 µM); in assay [8] (Escherichia coli, NCTC10418, 18 h), above 20 µg/mL; in [9] (Proteus mirabilis, read-out: MIC), above 25 µg/mL; in assay [10] (Erysipelothrix rhusiopathiae, NCTC8163, 18 h) it was 10 µg/mL (≈ 20.1 µM); in assay [11] (Mesomycoplasma hyopneumoniae, 144 h, read-out: MIC), 1 µg/mL (≈ 2.01 µM); in assay [12] (Pseudomonas aeruginosa, NCTC10662, agar with 5% chocolated horse blood, read-out: MIC) it was above 25 µg/mL. Further, the MIC amounted to 1 µg/mL (≈ 2.01 µM) in assay [13] (Staphylococcus aureus, read-out: MIC) and 2.5 µg/mL (≈ 5.01 µM) in assay [14] (144 h, read-out: MIC).

Methyl pseudomonate D [Example 2]: the MIC in [1] was 2.5 µg/mL; in assay [2], above 10 µg/mL; in assay [3] (Staph. aureus B4 (pen. resistant), Diagnostic Sensitivity Test Agar, 18 hours at 37°C) it was 80 µg/mL; in [15] it was 0.1 µg/mL; in assay [16], above 10 µg/mL; in assay [4] (Strep. suis (group D) SPS11, Diagnostic Sensitivity Test Agar, 18 hours at 37°C) it was 0.625 µg/mL. In addition, the MIC is 2.5 µg/mL in assay [5]; 40 µg/mL in assay [8] (E. coli NCTC 10418, Diagnostic Sensitivity Test Agar, 18 hours at 37°C); above 100 µg/mL in [9]; 20 µg/mL in assay [10] (Erysipelothrix rhusiopathiae NCTC 8163, Diagnostic Sensitivity Test Agar, 18 hours at 37°C); 5.0 µg/mL in assay [11]; above 100 µg/mL in [12] (agar with 5% chocolated horse blood). Besides, the values for the MIC in [13], in [14] and in assay [17] were 0.5 µg/mL, 1.0 µg/mL and 80 µg/mL, respectively.

The record behind these values is patent EP0068680A1, “Antibiotics” (BEECHAM GROUP PLC, priority 1981, dated 1983).
